BindingDB's records for PubMed 11454905 (Eli Lilly, 2001)
Residues, ends and D or L forms follow the SMILES beside them.

Target: Metabotropic glutamate receptor 3 (Rattus norvegicus, UniProt P31422)
Sequence (P31422 whole entry): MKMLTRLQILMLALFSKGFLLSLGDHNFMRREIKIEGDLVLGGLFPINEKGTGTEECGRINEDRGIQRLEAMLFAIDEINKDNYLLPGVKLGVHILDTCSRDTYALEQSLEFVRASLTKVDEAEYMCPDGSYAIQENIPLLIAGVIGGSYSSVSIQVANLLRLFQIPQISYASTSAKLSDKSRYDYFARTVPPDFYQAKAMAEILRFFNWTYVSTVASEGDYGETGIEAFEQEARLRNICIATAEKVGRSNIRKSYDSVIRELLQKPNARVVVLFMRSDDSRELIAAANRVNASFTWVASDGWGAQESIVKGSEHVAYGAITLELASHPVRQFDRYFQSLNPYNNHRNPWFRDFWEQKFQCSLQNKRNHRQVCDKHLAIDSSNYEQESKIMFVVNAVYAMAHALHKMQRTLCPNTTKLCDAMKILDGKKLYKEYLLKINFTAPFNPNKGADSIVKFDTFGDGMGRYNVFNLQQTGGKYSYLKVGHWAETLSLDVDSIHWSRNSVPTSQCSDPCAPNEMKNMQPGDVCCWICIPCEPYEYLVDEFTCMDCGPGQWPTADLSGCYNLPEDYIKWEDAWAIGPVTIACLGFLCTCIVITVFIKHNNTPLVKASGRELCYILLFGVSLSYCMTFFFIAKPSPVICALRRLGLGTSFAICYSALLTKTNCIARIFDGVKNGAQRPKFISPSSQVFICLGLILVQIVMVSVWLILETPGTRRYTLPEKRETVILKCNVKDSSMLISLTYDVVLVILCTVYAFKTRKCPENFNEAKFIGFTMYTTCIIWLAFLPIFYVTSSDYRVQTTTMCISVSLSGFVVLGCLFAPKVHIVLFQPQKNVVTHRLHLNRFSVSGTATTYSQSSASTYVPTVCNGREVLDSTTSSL

SMILES	Ki
N[C@@H](CCC(=O)O)C(=O)O [L-Glutamic acid]	> 10 µM
NC(CCC(=O)O)C(=O)O (configuration not stated) [glutamic acid dianion]	0.09 µM
N[C@@H](Cn1oc(=O)[nH]c1=O)C(=O)O [2-amino-3-(3,5-dioxo[1,2,4]oxadiazolidin-2-yl)propionic acid]	> 10 µM
N[C@@H](CCP(=O)(O)O)C(=O)O	> 10 µM
CC(=O)N[C@@H](CC(=O)O)C(=O)N[C@@H](CCC(=O)O)C(=O)O [[3H]NAAG] (Ac-Asp-Glu-OH)	> 10 µM
C[C@@](N)(C(=O)O)c1ccc(C(=O)O)cc1 (racemic)	> 10 µM
NC(C(=O)O)c1ccc(P(=O)(O)O)cc1 (configuration not stated) [Amino-(4-phosphono-phenyl)-acetic acid(RS-PPG)]	> 10 µM
N[C@@H](C[C@@H](CCCC(c1ccccc1)c1ccccc1)C(=O)O)C(=O)O [LY307452]	2.01 µM
N[C@H](CP(=O)(O)O)C(=O)O [CAS_23052-80-4]	> 10 µM
N[C@@]1(C(=O)O)CC[C@H](CC(=O)O)C1 [(1S,3S)-HOMO-ACPD]	8.69 µM
O=C(O)[C@H]1CN[C@H](C(=O)O)C1 [t-PDC]	> 10 µM
N[C@@H](CC(=O)O)C(=O)O [L-Aspartic acid, 2]	> 10 µM
N[C@@]1(C(=O)O)CC[C@H]2[C@H](C(=O)O)[C@H]21 [(2S,6S)-2-Amino-bicyclo[3.1.0]hexane-2,6-dicarboxylic acid]	> 10 µM
Nc1nc(O)c2ncn(COC(CO)CO)c2n1 [CAS_82410-32-0]	> 10 µM
N[C@H](C(=O)O)C1[C@@H](C(=O)O)[C@@H]1C(=O)O (some centres not stated) [DCG-IV]	0.061 µM
N[C@@]1(C(=O)O)CN[C@@H](C(=O)O)C1 [2R, 4R-APDC]	2.73 µM
N[C@@]1(C(=O)O)CO[C@H]2[C@H](C(=O)O)[C@H]21 [LY379268]	0.0065 µM
O=C(O)[C@H]1[C@H]2CN[C@H](C(=O)O)[C@H]21	> 10 µM
NC(Cn1cnc2c(=O)[nH]c(=O)[nH]c21)(C(=O)O)C1CC1C(=O)O (configuration not stated) [CAS_5311260]	0.0008 µM
N[C@H](C(=O)O)[C@H]1C[C@H]1C(=O)O [L-CCG-IV]	0.334 µM
CC(N)(C(=O)O)c1ccc(P(=O)(O)O)cc1 (configuration not stated)	> 10 µM
N[C@@]1(C(=O)O)CC[C@H](C(=O)O)C1 [1S, 3R-ACPD]	> 10 µM
